Assay results reported in patent US12435308B2, “Immunomodulation by amniotic fluid mesenchymal stem cells” (Amniotics AB, priority 2020, dated 2025).

How the values were obtained:
[1] = test system: human PBMCs activated with anti-CD3/anti-CD28; test: PBMC:MSC co-culture ex vivo assay, FACS analysis (cell composition)
Procedure: (§1) For ex vivo analysis, freshly isolated human PBMCs, pooled from three donors, were activated with anti-CD3/anti-CD28 at 10 μg/ml and 5 μg/ml respectively in presence of MSCs ex vivo for 24-72 hours. Following activation, cells were analyzed for effects on cellular composition and cell proliferation using CFSE. In addition, supernatants were analyzed for cytokine levels using Luminex.
(§2) In this example, Peripheral Blood Mononuclear Cells (PBMCs) were isolated from leucocyte concentrate from three different donors (acquired from Blodcentralen, Lunds Universitetssjukhus, Lund, Sweden) through gradient centrifugation using Ficoll. Red blood cells (RBCs) were lysed using lysis buffer (3 min, RT), cells were washed and the isolated PBMCs were pooled. Cell concentration was determined using a Scepter cell counter (Millipore Merck, MA, USA). Cells were diluted to 1×10^7 cells/ml in PBS. Pooled PBMCs were split into 2 different tubes. Pool one was stained with CFSE at 5 μM for 5 minutes (dark, RT). CFSE stained cells were washed with an equal volume of FBS to stop the reaction and washed again with PBS. Pool 2 was left in PBS.
(§3) All cells (PBMCs and MSCs) were diluted in two different cell culture media (M3 and M4) at 2*10^6 cells/ml. Media was supplemented with anti-CD28 at 5 μg/ml. Cells were added to anti-CD3 (10 μg/ml) coated U bottom cell culture plates according to layout below, 200 μl/well in different PBMC:MSC ratios (1:10, 1:5, 1:2.5, 1:0 and 0:1).
(§4) Included were also controls (stimulated and unstimulated PBMCs) and two reference drugs, e.g., cyclosporine (CsA) and Prednisolone. When plating controls, cells were spun down and diluted in media 3 or 4 at 4*10^6 cells/ml. 100 μl PBMCs were added per well. CsA was added at a final concentration of 10 μg/ml and Prednisolone was added at a final concentration of 125 nM. Medium was added to unstimulated control wells. Control cells (AD-MSC) were also analyzed. Cells were incubated for 24-72 hours at 37° C., 5% CO2.
Following 24 hours of incubation, cells in FACS/Luminex plates were stained with CD73, CD4, CD8, CD80, CD206, CD163 and PD-1. Briefly, cells were transferred to V bottom plates and centrifuged at 360×g for 2 min. Supernatant was transferred to a storage plate and put in −20° C. until analysis using Luminex. Cells were washed in PBS, centrifuged at 360×g for 2 min at 4° C. Supernatant was flicked off and surface markers were added. Cells were incubated at +4° C. for 20 minutes (dark). After incubation, cells were washed 1× in PBS, centrifuged at 360×g for 2 min at 4° C. Cells were resuspended in PBS and analyzed using the Attune Nxt flow cytometer. Compensation was performed using beads—AbC Total Compensation capture beads and negative beads. Since compensation was done using beads, FSC and SSC were changed before analyzing samples and adjusted to suit cells.

[2] = test system: human PBMCs activated with anti-CD3/anti-CD28; test: PBMC:MSC co-culture ex vivo assay, FACS analysis (CFSE proliferation)
Procedure: as §1, §2, §3, §4
To continue with this example, after 72 hours of incubation, CFSE stained cells were stained with CD4, CD8, CD80, CD206 and CD163. Briefly, cells were transferred to V bottom plates, centrifuged at 360×g for 2 min. Cells were washed in PBS, centrifuged at 360×g for 2 min at 4° C. Supernatant was flicked off and surface markers were added. Cells were incubated at +4° C. for 20 minutes. After incubation, cells were washed 1× in PBS, centrifuged at 360×g for 2 min at 4° C. Cells were resuspended in PBS and analyzed using flow cytometry. Compensation was performed using beads—AbC Total Compensation capture beads and negative beads. Since compensation was done using beads, FSC and SSC were changed before analyzing samples and adjusted to suit cells.
The inhibitory effect was calculated according to the two formulas below: […]

[3] = CFSE plates, 72 hours of incubation

C[C@]12C=CC(=O)C=C1CC[C@@H]1[C@@H]2[C@@H](O)C[C@@]2(C)[C@H]1CC[C@]2(O)C(=O)CO [Prednisolone]
% cytotoxic T cells (CD8+ lymphocytes) [1]: lower levels | expression level of CD73+M1 ([1]; 24 hours of incubation): lower expression level | expression level of CD73+M2 ([1]; 24 hours of incubation): lower expression level | % T helper cells (CD4+ lymphocytes) ([1]; 24 hours of incubation, versus control): higher levels | macrophage polarization (shift towards M2) ([1]; assay controls, cell composition): shift towards M2 | effect on cytotoxic T cells [2]: no effect | effect on M1 expression level [2, 3]: no effect | effect on M2 expression level [2, 3]: no effect | effect on T helper cells [2, 3]: no effect
